This is an account of results in ChEMBL document CHEMBL4177690, “(E)-3-(3,4,5-Trimethoxyphenyl)-1-(pyridin-4-yl)prop-2-en-1-one, a heterocyclic chalcone is a potent and selective CYP1A1 inhibitor and cancer chemopreventive agent” (Bioorg Med Chem Lett, 2017).

pIC50: −log10 of the molar value.

In one data set the target is Cytochrome P450 2E1 (Homo sapiens, UniProt P05181). Put plainly: Inhibition of human CYP2E1 expressed in yeast cells. The format is ADME, cell-based.
A further data set addresses Cytochrome P450 3A4 (Homo sapiens, UniProt P08684). Put plainly: Inhibition of recombinant human CYP3A4 expressed in HEK293 cells using dibenzylfluorescein as substrate pretreated for 30 mins followed by substrate addition measured for 60 mins by fluorescence assay. The format is ADME.
The target of another data set is T1, Cytochrome P450 2B6 (Homo sapiens, UniProt P20813).
T1 sequence (P20813 whole entry): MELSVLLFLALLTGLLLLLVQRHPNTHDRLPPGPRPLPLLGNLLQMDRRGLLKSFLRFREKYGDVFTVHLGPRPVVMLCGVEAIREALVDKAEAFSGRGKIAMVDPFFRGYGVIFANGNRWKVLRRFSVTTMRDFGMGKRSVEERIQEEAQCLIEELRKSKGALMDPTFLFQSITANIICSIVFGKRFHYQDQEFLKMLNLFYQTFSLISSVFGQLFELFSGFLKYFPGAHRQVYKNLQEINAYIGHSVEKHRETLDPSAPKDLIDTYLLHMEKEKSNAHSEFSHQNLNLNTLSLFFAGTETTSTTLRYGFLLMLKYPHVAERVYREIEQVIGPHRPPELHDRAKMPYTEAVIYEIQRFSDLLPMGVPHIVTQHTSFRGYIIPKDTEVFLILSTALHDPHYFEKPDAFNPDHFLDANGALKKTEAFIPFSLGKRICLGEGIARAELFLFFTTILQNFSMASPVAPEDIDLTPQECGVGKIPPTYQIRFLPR
Put plainly: Inhibition of human CYP2B6 expressed in yeast cells. It is filed as ADME, cell-based.

The species named for the next data set is Homo sapiens. Nature of the data set: Selectivity ratio of IC50 for recombinant human CYP2D6 to IC50 for recombinant human CYP1A1.
A further data set has as its target T2, Cytochrome P450 1A2 (Homo sapiens, UniProt P05177).
T2 sequence (P05177 whole entry): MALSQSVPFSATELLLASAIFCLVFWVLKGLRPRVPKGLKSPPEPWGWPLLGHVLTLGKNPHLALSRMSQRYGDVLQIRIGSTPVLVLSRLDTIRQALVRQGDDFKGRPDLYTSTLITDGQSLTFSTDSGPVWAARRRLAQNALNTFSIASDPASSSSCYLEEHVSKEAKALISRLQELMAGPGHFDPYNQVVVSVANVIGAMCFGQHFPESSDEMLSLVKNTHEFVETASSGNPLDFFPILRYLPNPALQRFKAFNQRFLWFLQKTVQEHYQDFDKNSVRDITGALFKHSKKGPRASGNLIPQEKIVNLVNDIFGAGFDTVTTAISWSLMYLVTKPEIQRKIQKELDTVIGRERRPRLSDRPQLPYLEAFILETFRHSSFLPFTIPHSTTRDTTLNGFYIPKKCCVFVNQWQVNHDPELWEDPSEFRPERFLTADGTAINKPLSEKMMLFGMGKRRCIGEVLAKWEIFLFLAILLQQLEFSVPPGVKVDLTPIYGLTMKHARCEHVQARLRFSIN
Nature of the data set: Inhibition of recombinant human CYP1A2 expressed in HEK293 cells using 3-cyano-7-ethoxycoumarin as substrate pretreated for 30 mins followed by substrate addition measured for 60 mins by fluorescence assay. It is filed as ADME.

The target in data set [1] is T3, Cytochrome P450 2C9 (Homo sapiens, UniProt P11712). Put plainly: Inhibition of recombinant human CYP2C9 expressed in HEK293 cells using 3-cyano-7-ethoxycoumarin as substrate pretreated for 30 mins followed by substrate addition measured for 60 mins by fluorescence assay. It is filed as ADME.
T3 sequence (P11712 whole entry): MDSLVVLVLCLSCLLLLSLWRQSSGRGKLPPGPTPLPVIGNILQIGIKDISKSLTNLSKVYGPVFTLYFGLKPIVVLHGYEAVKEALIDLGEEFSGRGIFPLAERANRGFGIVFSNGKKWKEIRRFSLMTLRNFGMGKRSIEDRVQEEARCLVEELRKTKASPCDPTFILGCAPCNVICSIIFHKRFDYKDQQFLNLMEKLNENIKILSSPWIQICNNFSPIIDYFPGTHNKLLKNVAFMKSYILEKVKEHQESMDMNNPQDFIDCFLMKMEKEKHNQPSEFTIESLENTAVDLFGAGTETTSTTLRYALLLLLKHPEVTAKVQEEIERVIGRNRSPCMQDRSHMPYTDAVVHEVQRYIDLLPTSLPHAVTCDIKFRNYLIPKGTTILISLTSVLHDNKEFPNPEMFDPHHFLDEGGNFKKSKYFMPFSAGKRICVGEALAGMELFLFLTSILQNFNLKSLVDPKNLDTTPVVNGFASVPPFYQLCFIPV
The target of data set [2] is T4, Cytochrome P450 1A1 (Homo sapiens, UniProt P04798).
T4 sequence (P04798 whole entry): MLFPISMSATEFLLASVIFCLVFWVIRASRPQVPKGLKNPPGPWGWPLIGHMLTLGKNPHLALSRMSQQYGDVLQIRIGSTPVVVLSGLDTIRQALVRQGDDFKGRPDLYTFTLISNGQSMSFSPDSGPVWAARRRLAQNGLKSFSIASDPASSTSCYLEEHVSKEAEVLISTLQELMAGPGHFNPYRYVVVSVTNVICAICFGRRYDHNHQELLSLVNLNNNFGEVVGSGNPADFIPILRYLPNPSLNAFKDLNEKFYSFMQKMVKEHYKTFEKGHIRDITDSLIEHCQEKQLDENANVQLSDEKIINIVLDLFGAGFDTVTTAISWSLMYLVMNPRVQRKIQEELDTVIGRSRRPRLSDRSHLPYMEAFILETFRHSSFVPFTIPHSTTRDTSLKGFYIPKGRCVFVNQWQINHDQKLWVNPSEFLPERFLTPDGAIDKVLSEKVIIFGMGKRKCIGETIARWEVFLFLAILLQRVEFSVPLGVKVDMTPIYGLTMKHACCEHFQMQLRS
Put plainly: Time-dependent inhibition of human CYP1A1 expressed in yeast microsomal membranes using 7-ethoxyresorufin as substrate. The format is cell membranes.

For the next data set, the target named is Cytochrome P450 2C19 (Homo sapiens, UniProt P33261). Put plainly: Inhibition of human CYP2C19 expressed in yeast microsomal membranes using 3-cyano-7-ethoxycoumarin as substrate measured after 10 mins by fluorescence assay. It is filed as ADME, cell membranes, Microsomal Membrane.
Cytochrome P450 2C19, sequence (P33261 whole entry): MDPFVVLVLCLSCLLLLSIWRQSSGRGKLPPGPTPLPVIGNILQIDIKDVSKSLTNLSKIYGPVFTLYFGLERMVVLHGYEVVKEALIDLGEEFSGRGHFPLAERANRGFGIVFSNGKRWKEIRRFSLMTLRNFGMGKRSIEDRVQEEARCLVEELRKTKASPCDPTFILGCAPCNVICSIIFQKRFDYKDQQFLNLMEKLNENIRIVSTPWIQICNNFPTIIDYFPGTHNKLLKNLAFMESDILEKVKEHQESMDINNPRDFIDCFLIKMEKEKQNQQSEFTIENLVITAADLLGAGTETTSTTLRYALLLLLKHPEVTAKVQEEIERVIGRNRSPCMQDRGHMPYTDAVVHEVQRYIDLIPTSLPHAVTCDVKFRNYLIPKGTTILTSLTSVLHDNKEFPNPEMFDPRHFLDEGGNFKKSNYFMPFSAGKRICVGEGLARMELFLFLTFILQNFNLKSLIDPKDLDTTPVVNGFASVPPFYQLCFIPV
The target in data set [3] is T4, Cytochrome P450 1A1. Put plainly: Inhibition of human CYP1A1 expressed in yeast microsomal membranes using 7-ethoxyresorufin as substrate measured after 10 mins by fluorescence assay. It is filed as cell membranes.
A further data set concerns the target T5, Cytochrome P450 1B1 (Homo sapiens, UniProt Q16678).
T5 sequence (Q16678 whole entry): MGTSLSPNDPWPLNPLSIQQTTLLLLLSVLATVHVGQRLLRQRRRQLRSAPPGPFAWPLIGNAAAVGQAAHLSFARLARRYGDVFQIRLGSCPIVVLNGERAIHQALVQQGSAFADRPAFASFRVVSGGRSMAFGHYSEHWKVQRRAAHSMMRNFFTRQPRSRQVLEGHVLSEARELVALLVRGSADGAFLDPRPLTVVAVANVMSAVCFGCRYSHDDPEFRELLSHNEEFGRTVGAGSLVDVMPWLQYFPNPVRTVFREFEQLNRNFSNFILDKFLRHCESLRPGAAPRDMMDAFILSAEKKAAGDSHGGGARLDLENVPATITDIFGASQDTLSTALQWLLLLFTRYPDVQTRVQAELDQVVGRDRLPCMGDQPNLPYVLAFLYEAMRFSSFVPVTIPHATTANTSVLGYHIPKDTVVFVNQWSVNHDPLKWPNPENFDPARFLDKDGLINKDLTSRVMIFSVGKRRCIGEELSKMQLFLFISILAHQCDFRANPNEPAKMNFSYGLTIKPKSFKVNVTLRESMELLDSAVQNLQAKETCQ
Put plainly: Inhibition of human CYP1B1 expressed in yeast microsomal membranes using 7-ethoxyresorufin as substrate measured after 10 mins by fluorescence assay. It is filed as cell membranes.

For a further data set, the target named is Cytochrome P450 2D6 (Homo sapiens, UniProt P10635). Nature of the data set: Inhibition of recombinant human CYP2D6 expressed in HEK293 cells using 7-ethoxy-methyloxy-3-cyanocoumarin as substrate pretreated for 30 mins followed by substrate addition measured for 60 mins by fluorescence assay. It is filed as ADME, cell-based.
Cytochrome P450 2D6, sequence (P10635 whole entry): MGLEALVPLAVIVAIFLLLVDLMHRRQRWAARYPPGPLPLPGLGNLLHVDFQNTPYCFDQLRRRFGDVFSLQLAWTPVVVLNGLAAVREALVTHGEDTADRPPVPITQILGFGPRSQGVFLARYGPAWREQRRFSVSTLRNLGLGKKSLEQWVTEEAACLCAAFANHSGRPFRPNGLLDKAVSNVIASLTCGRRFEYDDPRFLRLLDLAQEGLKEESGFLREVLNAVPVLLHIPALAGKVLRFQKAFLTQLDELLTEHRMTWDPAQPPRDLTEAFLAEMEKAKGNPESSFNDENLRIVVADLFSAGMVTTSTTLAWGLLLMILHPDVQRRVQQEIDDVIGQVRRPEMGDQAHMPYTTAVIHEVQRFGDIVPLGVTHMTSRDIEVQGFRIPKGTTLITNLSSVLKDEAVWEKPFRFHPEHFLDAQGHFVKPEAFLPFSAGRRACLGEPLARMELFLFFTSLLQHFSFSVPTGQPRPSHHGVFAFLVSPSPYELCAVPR
Data set [4] has as its target T3, Cytochrome P450 2C9. Nature of the data set: Inhibition of human CYP2C9 expressed in yeast microsomal membranes using 3-cyano-7-ethoxycoumarin as substrate measured after 10 mins by fluorescence assay. It is filed as ADME, cell membranes, Microsomal Membrane.

Cytochrome P450 3A4, sequence (P08684 whole entry): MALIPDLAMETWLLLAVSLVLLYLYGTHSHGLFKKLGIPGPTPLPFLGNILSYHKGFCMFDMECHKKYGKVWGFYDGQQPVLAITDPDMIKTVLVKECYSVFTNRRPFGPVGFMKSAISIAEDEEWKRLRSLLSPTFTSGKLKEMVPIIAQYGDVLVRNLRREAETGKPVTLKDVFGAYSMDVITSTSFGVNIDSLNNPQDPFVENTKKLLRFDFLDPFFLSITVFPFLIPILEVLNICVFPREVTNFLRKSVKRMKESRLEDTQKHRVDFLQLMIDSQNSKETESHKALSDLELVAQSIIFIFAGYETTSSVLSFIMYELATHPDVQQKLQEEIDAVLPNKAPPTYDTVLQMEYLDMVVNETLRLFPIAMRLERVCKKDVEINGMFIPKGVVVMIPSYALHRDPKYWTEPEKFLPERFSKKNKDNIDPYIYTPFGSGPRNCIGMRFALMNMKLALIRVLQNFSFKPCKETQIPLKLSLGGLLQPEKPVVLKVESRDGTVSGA
Cytochrome P450 2E1, sequence (P05181 whole entry): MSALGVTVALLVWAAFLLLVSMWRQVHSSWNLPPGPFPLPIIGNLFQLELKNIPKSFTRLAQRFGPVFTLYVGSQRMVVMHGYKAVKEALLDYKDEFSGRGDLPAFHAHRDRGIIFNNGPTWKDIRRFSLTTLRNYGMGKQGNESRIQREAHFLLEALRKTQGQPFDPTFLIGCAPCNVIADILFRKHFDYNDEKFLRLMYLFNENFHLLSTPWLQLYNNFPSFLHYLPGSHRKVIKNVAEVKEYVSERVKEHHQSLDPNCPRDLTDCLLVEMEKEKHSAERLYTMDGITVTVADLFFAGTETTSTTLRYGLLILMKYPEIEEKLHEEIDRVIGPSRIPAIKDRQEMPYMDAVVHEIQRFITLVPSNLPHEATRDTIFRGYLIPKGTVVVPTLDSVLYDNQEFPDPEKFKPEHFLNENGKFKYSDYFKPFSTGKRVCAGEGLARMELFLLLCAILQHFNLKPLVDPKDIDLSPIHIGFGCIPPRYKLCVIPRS

In general, pIC50 refers to the IC50 on a negative log10 scale, so that one unit is a factor of ten. With `COc1cc(/C=C/C(=O)c2ccncc2)cc(OC)c1OC`, the pIC50 at Cytochrome P450 2E1 is under 5.00; on Cytochrome P450 3A4, under 5.00; at Cytochrome P450 2B6, under 5.00; at Cytochrome P450 1A2, 5.95; at Cytochrome P450 2C9 [1], under 5.00; at Cytochrome P450 2C19, under 4.70. Further, the negative-log IC50 (pIC50) was 7.21 against Cytochrome P450 1A1 [3], 5.28 against Cytochrome P450 1B1, under 5.00 at Cytochrome P450 2D6 and under 4.70 at Cytochrome P450 2C9 [4]. The Ratio IC50 in the data set listed under Homo sapiens is over 100. Also, the TDI result at Cytochrome P450 1A1 [2] is recorded as “Not Active”.
